From ChEMBL document CHEMBL1671789, “Evaluation of quinazoline analogues as glucocerebrosidase inhibitors with chaperone activity” (J Med Chem, 2011)
Activity calls are given as the source filed them. How the calls were made is not given here.

How the values were obtained:
[1] = Inhibition of alpha-glucosidase
[2] = Inhibition of alpha-galactosidase
Further: test concentration or dose not given here.

In the case of `Cc1ccc(S(=O)(=O)N2CCN(c3nc(-n4cnc5ccccc54)nc4ccccc34)CC2)cc1`, the Activity [1] is reported as “inactive” and the Activity [2] is reported as “inactive”.

With `O=S(=O)(c1ccc2c(c1)OCO2)N1CCN(c2nc(-c3cccs3)nc3ccccc23)CC1` the Activity [1] was “inactive” and the Activity [2] was “inactive”.

In the case of `O=S(=O)(c1cccc2ccccc12)N1CCN(c2nc(-c3cccs3)nc3ccccc23)CC1`, the Activity [1] is reported as “inactive” and the Activity [2] is reported as “inactive”.

In the case of `Cc1ccc(S(=O)(=O)N2CCN(c3nc(-c4ccc(CN5CCOCC5)s4)nc4ccccc34)CC2)cc1`, the Activity [1] is reported as “inactive” and the Activity [2] is reported as “inactive”.

In the case of `O=S(=O)(N1CCN(c2nc(-c3cccs3)nc3ccccc23)CC1)C(F)(F)F`, the Activity [1] is reported as “inactive” and the Activity [2] is reported as “inactive”.

For `O=S(=O)(c1ccccc1Br)N1CCN(c2nc(-c3cccs3)nc3ccccc23)CC1`, the Activity [1] was “inactive” and the Activity [2] was “inactive”.

For `CC(C)(C)c1ccc(S(=O)(=O)N2CCN(c3nc(-c4ccccc4)nc4ccccc34)CC2)cc1`, the Activity [1] was “inactive” and the Activity [2] was “inactive”.

In the case of `O=S(=O)(c1cccc(Cl)c1)N1CCN(c2nc(-c3ccccc3)nc3ccccc23)CC1`, the Activity [1] is reported as “inactive” and the Activity [2] is reported as “inactive”.

With `O=S(=O)(/C=C/c1ccccc1)N1CCN(c2nc(-c3ccccc3)nc3ccccc23)CC1` the Activity [1] was “inactive” and the Activity [2] was “inactive”.

With `Cc1ccc(S(=O)(=O)N2CCN(c3nc(-c4cccs4)nc4ccccc34)CC2)c(C)c1` the Activity [1] was “inactive” and the Activity [2] was “inactive”.

In the case of `O=S(=O)(c1ccc(C(F)(F)F)cc1)N1CCN(c2nc(-c3cccs3)nc3ccccc23)CC1`, the Activity [1] is reported as “inactive” and the Activity [2] is reported as “inactive”.

With `CC(=O)c1ccc(S(=O)(=O)N2CCN(c3nc(-c4cccs4)nc4ccccc34)CC2)cc1` the Activity [1] was “inactive” and the Activity [2] was “inactive”.

With `O=S(=O)(c1ccc2c(c1)CCCC2)N1CCN(c2nc(-c3ccccc3)nc3ccccc23)CC1` the Activity [1] was “inactive” and the Activity [2] was “inactive”.

With `Cc1ccc(S(=O)(=O)N2CCN(c3nc(-c4cccs4)nc4ncccc34)CC2)cc1` the Activity [1] was “inactive” and the Activity [2] was “inactive”.

In the case of `Cc1cc(C)cc(S(=O)(=O)N2CCN(c3nc(-c4cccs4)nc4ccccc34)CC2)c1`, the Activity [1] is reported as “inactive” and the Activity [2] is reported as “inactive”.

With `Cc1ccc(S(=O)(=O)N2CCN(c3nc(-c4ccnnc4)nc4ccccc34)CC2)cc1` the Activity [1] was “inactive” and the Activity [2] was “inactive”.

In the case of `Cc1ccc(S(=O)(=O)N2CCN(c3ncnc4ccccc34)CC2)cc1`, the Activity [1] is reported as “inactive” and the Activity [2] is reported as “inactive”.

With `COc1ccc(S(=O)(=O)N2CCN(c3nc(-c4ccccc4)nc4ccccc34)CC2)cc1` the Activity [1] was “inactive” and the Activity [2] was “inactive”.

With `O=[N+]([O-])c1ccccc1S(=O)(=O)N1CCN(c2nc(-c3ccccc3)nc3ccccc23)CC1` the Activity [1] was “inactive” and the Activity [2] was “inactive”.

In the case of `Cc1ccc(S(=O)(=O)N2CCN(c3nc(-c4ccc(C)s4)nc4ccccc34)CC2)cc1`, the Activity [1] is reported as “inactive” and the Activity [2] is reported as “inactive”.

In the case of `O=S(=O)(c1nccs1)N1CCN(c2nc(-c3cccs3)nc3ccccc23)CC1`, the Activity [1] is reported as “inactive” and the Activity [2] is reported as “inactive”.

In the case of `O=S(=O)(c1ccccc1Br)N1CCN(c2nc(-c3ccccc3)nc3ccccc23)CC1`, the Activity [1] is reported as “inactive” and the Activity [2] is reported as “inactive”.

With `CN(CCN(C)c1nc(-c2cccs2)nc2ccccc12)C(=O)OC(C)(C)C` the Activity [1] was “inactive” and the Activity [2] was “inactive”.

With `O=S(=O)(c1ccc2c(c1)OCCO2)N1CCN(c2nc(-c3cccnc3)nc3ccccc23)CC1` the Activity [1] was “inactive” and the Activity [2] was “inactive”.

For `O=S(=O)(c1ccc(Br)cc1)N1CCN(c2nc(-c3ccccc3)nc3ccccc23)CC1`, the Activity [1] was “inactive” and the Activity [2] was “inactive”.

In the case of `O=S(=O)(c1ccc2ncccc2c1)N1CCN(c2nc(-c3cccs3)nc3ccccc23)CC1`, the Activity [1] is reported as “inactive” and the Activity [2] is reported as “inactive”.

In the case of `COc1ccc(S(=O)(=O)N2CCN(c3nc(-c4cccs4)nc4ccccc34)CC2)cc1OC`, the Activity [1] is reported as “inactive” and the Activity [2] is reported as “inactive”.
